Measured values as given in publication PMC3655043, “Functional expression of a blood tolerant laccase in Pichia pastoris” (BMC Biotechnology, 2013).

Target: T1, ChU-B laccase (blood-tolerant ChU-B mutant of PM1 laccase) (basidiomycete PM1, UniProt Q12571, F417I/F475E, form not given)
T1 construct: directed-evolution variant; alpha-factor evolved prepro-leader processed, extra N-terminal ETEAEF kept (ETEAEFSIGP...); secreted by Pichia pastoris X-33; 53,939 Da calculated, 62,541 Da glycosylated
Experiment: steady-state kinetics, absorbance […] nm
Assay type: biochemical
Details: pH 5.0; enzyme from P. pastoris; read-out: ChU-B fromP. pastoris / Km

T1 sequence (Q12571 entry or part of it F417I/F475E, form open): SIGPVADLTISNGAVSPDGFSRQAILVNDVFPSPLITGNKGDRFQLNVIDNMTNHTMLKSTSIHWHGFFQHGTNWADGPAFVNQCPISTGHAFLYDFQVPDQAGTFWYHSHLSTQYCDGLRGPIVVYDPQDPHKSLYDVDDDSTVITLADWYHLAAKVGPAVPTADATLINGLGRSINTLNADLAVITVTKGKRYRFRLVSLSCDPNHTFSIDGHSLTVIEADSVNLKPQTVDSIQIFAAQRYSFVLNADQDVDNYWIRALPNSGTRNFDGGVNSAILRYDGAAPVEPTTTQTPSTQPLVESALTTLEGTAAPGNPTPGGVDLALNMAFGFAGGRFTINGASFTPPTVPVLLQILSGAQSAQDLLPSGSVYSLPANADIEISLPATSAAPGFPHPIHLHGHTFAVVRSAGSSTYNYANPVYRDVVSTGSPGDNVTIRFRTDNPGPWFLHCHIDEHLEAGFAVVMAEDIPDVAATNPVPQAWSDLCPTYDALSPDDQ

**Q.** Which Km does the source give for `COc1cccc(OC)c1O` [DMP] here?
**A.** Its Km is 1910 ± 50 µM.
